Data reported in patent publication US12570603B2, “FABP4/5 inhibitors, methods of use and methods of making” (Novius Therapeutics, LLC, priority 2021, dated 2026).
Read-outs that look alike come from different tables or passages of the source.

Assays:
FABP4 = molecular target: T1, FABP4 (Homo sapiens, UniProt P15090); experiment: FABP binding assay by fluorescence titration (ANS competition)
T1 construct: made in house
Method: (§1) This example illustrates a binding assay study used to determine the binding affinity of the various inhibitor compounds disclosed herein with the various FABPs: FABP3, FABP4, FABP5 and FABP7.
(§2) Binding assays for FABP3, FABP4, FABP5 and FABP7 were carried out by fluorescence titrations. FABPs were bacterially expressed and purified and the equilibrium dissociation constants (Kd) that characterize their interactions with different compounds were measured by fluorescence competition assays. The method entails two steps as described in e.g., Lin, Q. et al., “Ligand selectivity of the peroxisome proliferator-activated receptor alpha,” Biochemistry 38, 185-190, doi:10.1021/bi9816094 bi9816094 [pii](1999). In the first step, Kd for the association of the protein with the fluorescent fatty acid probe ANS was measured. Protein ([…]) was titrated with ANS from a concentrated solution in DMSO. Ligand binding was monitored by following the increase in the fluorescence of the ligand upon binding to the protein, and Kd for the association of ANS with the each FABP was computed from titration curves as described in e.g., Norris, A. W. & Li, E., “Fluorometric titration of the CRABPs,” Methods Mol Biol 89, 123-139 (1998)). Kds for binding of non-fluorescent ligands were then measured by monitoring their ability to displace ANS in the binding pocket of the protein. Each FABP was pre-complexed with ANS at 1:1 molar ratio and titrated with the different compounds whose binding was reflected by a decrease in probe fluorescence. Kds were extracted from the EC50 of the competition curve and the measured Kd for ANS.
(§3) Binding assays for FABP3, FABP4, FABP5 and FABP7 were carried out by fluorescence titrations as described in Example 16.

FABP5 = molecular target: T2, FABP5 (Homo sapiens, UniProt Q01469); experiment: as above
T2 construct: made in house
T2 sequence (Q01469 whole entry, species assumed): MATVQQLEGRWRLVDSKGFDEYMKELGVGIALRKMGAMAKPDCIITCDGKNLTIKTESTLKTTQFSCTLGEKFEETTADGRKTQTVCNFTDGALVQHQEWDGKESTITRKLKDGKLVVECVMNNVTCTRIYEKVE
Method: as §1, §2, §3

[1] = tested on: RAW264.7 murine macrophage cells; experiment: LPS-stimulated proinflammatory cytokine expression by QPCR; format: cell-based; conditions: B4 0 to 5 μM, then LPS 100 ng/ml
Method: Cells were treated with a compound for 6 h. then lysed and RNA was extracted using Trizol, according to the manufacturer's instructions. cDNA was generated using GeneAmp RNA PCR (Applied Biosystems). qPCR was carried out using TaqMan chemistry and Assays-on-Demand probes (Applied Biosystems). 18s (4352930) rRNA was used for normalization. Relative expression was calculated as 2^−ΔΔCT.
FIG. 33, FIG. 34, and FIG. 35 show the anti-inflammatory effects of compound B4 on RAW264.7 murine macrophage cells.

[2] = Level of B4 in serum and tissues after IP injection or oral gavage; format: in vivo, mice
Method: Male CD-1 mice (n=3) were treated with B4 either by IP injections (5 mg/kg) or by oral gavage (10 mg/kg). At times, 3, 6, and 24 hours after treatment, mice were euthanized and serum, liver, adipose, muscle and brain tissues were collected and analyzed to determine level of B4. Untreated mice were used as controls.

[3] = IP Injection (0.35 μmole/mouse), 3 hr
[4] = IP Injection (0.35 μmole/mouse), 6 hr
[5] = IP Injection (0.35 μmole/mouse), 24 hr
[6] = Oral Gavage (0.71 μmole/mouse), 3 hr
[7] = Oral Gavage (0.71 μmole/mouse), 6 hr
[8] = Oral Gavage (0.71 μmole/mouse), 24 hr

T1 sequence (P15090 whole entry, species assumed): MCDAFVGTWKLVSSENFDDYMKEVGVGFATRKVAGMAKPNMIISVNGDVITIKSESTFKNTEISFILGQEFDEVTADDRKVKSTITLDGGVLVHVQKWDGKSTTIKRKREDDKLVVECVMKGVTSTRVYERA

CC(C)Oc1cc(NC(=O)CSCC(=O)O)c(Cl)cc1Cl [Compound B4, 2-((2-((2,4-dichloro-5-isopropoxyphenyl)amino)-2-oxoethyl)thio)acetic acid]
Kd (FABP4; FIG. 1A/1B, read-out: binding affinity towards FABP4 (Kd)): < 1000 nM | Kd (FABP4; fluorescence competition with ANS, read-out: FABP4 binding): 66 nM | Kd (FABP5; FIG. 1A/1B, read-out: binding affinity towards FABP5 (Kd)): < 1000 nM | Kd (FABP5; fluorescence competition with ANS, read-out: FABP5 binding): 36 nM | IL-1β mRNA level [1]: lower in the treated cells | IL-6 mRNA level [1]: lower in the treated cells | TNFα mRNA level [1]: lower in the treated cells | Drug Concentration, Adipose [2, 3]: 7.98 ± 3.82 µmol/kg | Drug Concentration, Blood [2, 3]: 1910 ± 140 nM | Drug Concentration, Brain [2, 3]: 0.15 ± 0.04 µmol/kg | Drug Concentration, Liver [2, 3]: 7.05 ± 2.0 µmol/kg | Drug Concentration, Muscle [2, 3]: 1.7 ± 0.8 µmol/kg | Drug Concentration, Adipose [2, 4]: 2.45 ± 1.12 µmol/kg | Drug Concentration, Blood [2, 4]: 1370 ± 120 nM | Drug Concentration, Brain [2, 4]: 0.09 ± 0.01 µmol/kg | Drug Concentration, Liver [2, 4]: 3.45 ± 1.49 µmol/kg | Drug Concentration, Muscle [2, 4]: 1.07 ± 0.8 µmol/kg | Drug Concentration, Adipose [2, 5]: 0.013 ± 0.006 µmol/kg | Drug Concentration, Blood [2, 5]: 5.4 ± 2 nM | Drug Concentration, Brain [2, 5]: 0.0003 ± 0.0002 µmol/kg | Drug Concentration, Liver [2, 5]: 0.035 ± 0.016 µmol/kg | Drug Concentration, Muscle [2, 5]: 0.008 ± 0.002 µmol/kg | Drug Concentration, Adipose [2, 6]: 1.41 ± 0.002 µmol/kg | Drug Concentration, Blood [2, 6]: 1240 ± 250 nM | Drug Concentration, Brain [2, 6]: 0.1 ± 0.04 µmol/kg | Drug Concentration, Liver [2, 6]: 8.93 ± 2.2 µmol/kg | Drug Concentration, Muscle [2, 6]: 1.33 ± 0.74 µmol/kg | Drug Concentration, Adipose [2, 7]: 1.38 ± 0.05 µmol/kg | Drug Concentration, Blood [2, 7]: 980 ± 500 nM | Drug Concentration, Brain [2, 7]: 0.09 ± 0.04 µmol/kg | Drug Concentration, Liver [2, 7]: 6.47 ± 2.3 µmol/kg | Drug Concentration, Muscle [2, 7]: 0.95 ± 0.45 µmol/kg | Drug Concentration, Adipose [2, 8]: 0.11 ± 0.05 µmol/kg | Drug Concentration, Blood [2, 8]: 7.2 ± 2 nM | Drug Concentration, Brain [2, 8]: 0.0009 ± 0.0007 µmol/kg | Drug Concentration, Liver [2, 8]: 0.035 ± 0.013 µmol/kg | Drug Concentration, Muscle [2, 8]: 0.014 ± 0.018 µmol/kg | clearance from serum and tissues ([2]; male CD-1 mice, IP 5 mg/kg or oral gavage 10 mg/kg, after 24 hours): cleared from the serum and tissues
